Assay results taken from the supplement of paper PMC8967900.

Columns and labels:
Experiment in all cases: selective drug sensitivity score (sDSS, relative to normal bone marrow) (sDSS (score)); higher = more potent and effective on the cell line relative to normal bone marrow cells
Details in all cases: 72 h
[1] = test system: 380
[2] = test system: 697
[3] = test system: CCRF-CEM
[4] = test system: CCRF-HSB2
[5] = test system: COG-LL-319h
[6] = test system: COG-LL-332h
[7] = test system: DND-41
[8] = test system: HAL-01
[9] = test system: HPB-ALL
[10] = test system: KARPAS-45
[11] = test system: KASUMI-10
[12] = test system: KASUMI-2
[13] = test system: KASUMI-9
[14] = test system: LC4-1
[15] = test system: MHH-CALL-3
[16] = test system: P12-ICHIKAWA
[17] = test system: PEER
[18] = test system: REH
[19] = test system: SEM cells
[20] = test system: TANOUE
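Further: ALL cell lines in 384-well plates, five doses spanning 10,000-fold, each plate scaled between vehicle and 100 µmol/L benzalkonium chloride controls, sDSS an adapted area-under-curve metric.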

For CC[C@H](CC#N)OC(=O)N[C@@H](C)c1cccc(NC(=O)Nc2ccc(-c3cnco3)c(OC)c2)c1 [AVN944] (top concentration 10000 nM), the “selective drug sensitivity score” value [1] was 18.4, the “selective drug sensitivity score” value [2] was 17.5 and the “selective drug sensitivity score” value [3] was 12.1. For the same compound, the “selective drug sensitivity score” value [4] was 14.5, the “selective drug sensitivity score” value [5] was 12.3 and the “selective drug sensitivity score” value [6] was 18. For the same compound, the “selective drug sensitivity score” value [7] was 8.44, the “selective drug sensitivity score” value [8] was 5.54 and the “selective drug sensitivity score” value [9] was 5.64. For the same compound, the “selective drug sensitivity score” value [10] was 8.84, the “selective drug sensitivity score” value [11] was 10.1 and the “selective drug sensitivity score” value [12] was 14.4. The “selective drug sensitivity score” value [13] was 13.5, the “selective drug sensitivity score” value [14] was 5.34 and the “selective drug sensitivity score” value [15] was 11.1. The “selective drug sensitivity score” value [16] was 14.2, the “selective drug sensitivity score” value [17] was 2.94 and the “selective drug sensitivity score” value [18] was 16.8. For the same compound, the “selective drug sensitivity score” value [19] was 7.04 and the “selective drug sensitivity score” value [20] was -3.66.
In the case of CN(Cc1cnc2nc(N)nc(N)c2n1)c1ccc(C(=O)N[C@@H](CCC(=O)O)C(=O)O)cc1 [Methotrexate] (top concentration 5000 nM), the “selective drug sensitivity score” value [1] was 17.8, the “selective drug sensitivity score” value [2] was 0.58 and the “selective drug sensitivity score” value [3] was 13. The “selective drug sensitivity score” value [4] was 14, the “selective drug sensitivity score” value [5] was 20.1 and the “selective drug sensitivity score” value [6] was 11.3. For the same compound, the “selective drug sensitivity score” value [7] was 15, the “selective drug sensitivity score” value [8] was 17.1 and the “selective drug sensitivity score” value [9] was 5.28. For the same compound, the “selective drug sensitivity score” value [10] was 11.5, the “selective drug sensitivity score” value [11] was 9.88 and the “selective drug sensitivity score” value [12] was 0.28. The “selective drug sensitivity score” value [13] was -0.42, the “selective drug sensitivity score” value [14] was -0.02 and the “selective drug sensitivity score” value [15] was 10.4. The “selective drug sensitivity score” value [16] was 15.8, the “selective drug sensitivity score” value [17] was 14.6 and the “selective drug sensitivity score” value [18] was -0.22. The “selective drug sensitivity score” value [19] was -0.42 and the “selective drug sensitivity score” value [20] was 15.3.
For CC[C@@]1(O)C(=O)OCc2c1cc1n(c2=O)Cc2cc3c(CN(C)C)c(O)ccc3nc2-1 [Topotecan] (top concentration 10000 nM), the “selective drug sensitivity score” value [1] was 27.1, the “selective drug sensitivity score” value [2] was 18.9 and the “selective drug sensitivity score” value [3] was 21.2. The “selective drug sensitivity score” value [4] was 23.3, the “selective drug sensitivity score” value [5] was 18.6 and the “selective drug sensitivity score” value [6] was 23.9. For the same compound, the “selective drug sensitivity score” value [7] was 21.4, the “selective drug sensitivity score” value [8] was 20 and the “selective drug sensitivity score” value [9] was 11.2. The “selective drug sensitivity score” value [10] was -0.22, the “selective drug sensitivity score” value [11] was 18 and the “selective drug sensitivity score” value [12] was 14.7. The “selective drug sensitivity score” value [13] was 18.2, the “selective drug sensitivity score” value [14] was 21.7 and the “selective drug sensitivity score” value [15] was 12.2. For the same compound, the “selective drug sensitivity score” value [16] was 19.2, the “selective drug sensitivity score” value [17] was 10.1 and the “selective drug sensitivity score” value [18] was 22.2. The “selective drug sensitivity score” value [19] was 20.3 and the “selective drug sensitivity score” value [20] was -3.62.
In the case of COc1ccc(-c2ccc3c(N4CCOC[C@@H]4C)nc(N4CCOC[C@@H]4C)nc3n2)cc1CO [AZD8055] (top concentration 10000 nM), the “selective drug sensitivity score” value [1] was 15.8, the “selective drug sensitivity score” value [2] was 16.8 and the “selective drug sensitivity score” value [3] was 13.4. For the same compound, the “selective drug sensitivity score” value [4] was 10.1, the “selective drug sensitivity score” value [5] was 5.28 and the “selective drug sensitivity score” value [6] was 8.08. The “selective drug sensitivity score” value [7] was 4.78, the “selective drug sensitivity score” value [8] was 5.08 and the “selective drug sensitivity score” value [9] was 0.18. The “selective drug sensitivity score” value [10] was 4.78, the “selective drug sensitivity score” value [11] was 0.48 and the “selective drug sensitivity score” value [12] was 14.6. For the same compound, the “selective drug sensitivity score” value [13] was 13.3, the “selective drug sensitivity score” value [14] was 6.38 and the “selective drug sensitivity score” value [15] was -0.52. The “selective drug sensitivity score” value [16] was 6.78, the “selective drug sensitivity score” value [17] was 6.08 and the “selective drug sensitivity score” value [18] was 12.8. The “selective drug sensitivity score” value [19] was 6.18 and the “selective drug sensitivity score” value [20] was -3.02.
Cc1sc2c(c1C)C(c1ccc(Cl)cc1)=N[C@@H](CC(=O)NCCCCNC(=O)COc1cccc3c1C(=O)N(C1CCC(=O)NC1=O)C3=O)c1nnc(C)n1-2 (stereo not given in full) [dBET1] (top concentration 10000 nM) was tested, and the “selective drug sensitivity score” value [1] was -4.58, the “selective drug sensitivity score” value [2] was -0.38 and the “selective drug sensitivity score” value [3] was -3.68. The “selective drug sensitivity score” value [4] was 2.12, the “selective drug sensitivity score” value [5] was 3.62 and the “selective drug sensitivity score” value [6] was -8.98. For the same compound, the “selective drug sensitivity score” value [7] was -0.88, the “selective drug sensitivity score” value [8] was -14.9 and the “selective drug sensitivity score” value [9] was -12.7. The “selective drug sensitivity score” value [10] was -7.68, the “selective drug sensitivity score” value [11] was 2.32 and the “selective drug sensitivity score” value [12] was -6.88. For the same compound, the “selective drug sensitivity score” value [13] was 2.42, the “selective drug sensitivity score” value [14] was 5.22 and the “selective drug sensitivity score” value [15] was -1.88. For the same compound, the “selective drug sensitivity score” value [16] was -11.6, the “selective drug sensitivity score” value [17] was -4.48 and the “selective drug sensitivity score” value [18] was -1.28. The “selective drug sensitivity score” value [19] was -3.38 and the “selective drug sensitivity score” value [20] was -17.5.
With CN1CCN(C2CCC(n3cc(-c4ccc(Oc5ccccc5)cc4)c4c(N)ncnc43)CC2)CC1 (stereo not given) (top concentration 10000 nM) the “selective drug sensitivity score” value [1] was -0.68, the “selective drug sensitivity score” value [2] was 3.32 and the “selective drug sensitivity score” value [3] was 1.12. The “selective drug sensitivity score” value [4] was 29.1, the “selective drug sensitivity score” value [5] was 2.42 and the “selective drug sensitivity score” value [6] was 6.42. The “selective drug sensitivity score” value [7] was 3.62, the “selective drug sensitivity score” value [8] was 7.52 and the “selective drug sensitivity score” value [9] was 0.32. For the same compound, the “selective drug sensitivity score” value [10] was 4.12, the “selective drug sensitivity score” value [11] was 8.52 and the “selective drug sensitivity score” value [12] was -1.38. For the same compound, the “selective drug sensitivity score” value [13] was 6.52, the “selective drug sensitivity score” value [14] was -1.78 and the “selective drug sensitivity score” value [15] was 6.92. The “selective drug sensitivity score” value [16] was 1.12, the “selective drug sensitivity score” value [17] was 7.02 and the “selective drug sensitivity score” value [18] was 4.12. For the same compound, the “selective drug sensitivity score” value [19] was 9.62 and the “selective drug sensitivity score” value [20] was -4.68.
O=c1[nH]c(=O)n([C@H]2C[C@H](O)[C@@H](CO)O2)cc1C(F)(F)F [Trifluridine] (top concentration 10000 nM) was tested, and the “selective drug sensitivity score” value [1] was 14, the “selective drug sensitivity score” value [2] was 17.9 and the “selective drug sensitivity score” value [3] was 14.2. The “selective drug sensitivity score” value [4] was -1.84, the “selective drug sensitivity score” value [5] was 20.2 and the “selective drug sensitivity score” value [6] was 7.46. For the same compound, the “selective drug sensitivity score” value [7] was 9.76, the “selective drug sensitivity score” value [8] was 8.76 and the “selective drug sensitivity score” value [9] was 4.66. The “selective drug sensitivity score” value [10] was -1.84, the “selective drug sensitivity score” value [11] was 6.36 and the “selective drug sensitivity score” value [12] was 10.3. The “selective drug sensitivity score” value [13] was 6.56, the “selective drug sensitivity score” value [14] was 16 and the “selective drug sensitivity score” value [15] was 6.56. For the same compound, the “selective drug sensitivity score” value [16] was 15.4, the “selective drug sensitivity score” value [17] was 7.66 and the “selective drug sensitivity score” value [18] was 15.3. For the same compound, the “selective drug sensitivity score” value [19] was 14.5 and the “selective drug sensitivity score” value [20] was -1.84.
COc1cccc2c1C(=O)c1c(O)c3c(c(O)c1C2=O)C[C@@](O)(C(=O)CO)C[C@@H]3O[C@H]1C[C@H](N)[C@@H](O)[C@H](C)O1 [Epirubicin] (top concentration 1000 nM) was tested, and the “selective drug sensitivity score” value [1] was 13.8, the “selective drug sensitivity score” value [2] was 10.1 and the “selective drug sensitivity score” value [3] was 8.02. The “selective drug sensitivity score” value [4] was 14.8, the “selective drug sensitivity score” value [5] was 16.3 and the “selective drug sensitivity score” value [6] was 11.3. The “selective drug sensitivity score” value [7] was -0.58, the “selective drug sensitivity score” value [8] was -4.28 and the “selective drug sensitivity score” value [9] was 0.12. For the same compound, the “selective drug sensitivity score” value [10] was -0.28, the “selective drug sensitivity score” value [11] was 5.82 and the “selective drug sensitivity score” value [12] was 7.72. For the same compound, the “selective drug sensitivity score” value [13] was 7.62, the “selective drug sensitivity score” value [14] was 7.62 and the “selective drug sensitivity score” value [15] was 14.8. The “selective drug sensitivity score” value [16] was 4.62, the “selective drug sensitivity score” value [17] was -2.98 and the “selective drug sensitivity score” value [18] was 10.5. The “selective drug sensitivity score” value [19] was 3.82 and the “selective drug sensitivity score” value [20] was -7.88.
For CON(C)C(=O)N1N=C(c2cc(F)ccc2F)S[C@@]1(CCCN)c1ccccc1 [Filanesib] (top concentration 1000 nM), the “selective drug sensitivity score” value [1] was 18.5, the “selective drug sensitivity score” value [2] was 23 and the “selective drug sensitivity score” value [3] was 16.2. The “selective drug sensitivity score” value [4] was 22.5, the “selective drug sensitivity score” value [5] was 23.4 and the “selective drug sensitivity score” value [6] was 21.1. For the same compound, the “selective drug sensitivity score” value [7] was 6.3, the “selective drug sensitivity score” value [8] was 11.5 and the “selective drug sensitivity score” value [9] was 20.3. For the same compound, the “selective drug sensitivity score” value [10] was 20.9, the “selective drug sensitivity score” value [11] was 14.2 and the “selective drug sensitivity score” value [12] was 19.8. The “selective drug sensitivity score” value [13] was 12.4, the “selective drug sensitivity score” value [14] was 13.2 and the “selective drug sensitivity score” value [15] was 5.2. For the same compound, the “selective drug sensitivity score” value [16] was 15.9, the “selective drug sensitivity score” value [17] was 19.2 and the “selective drug sensitivity score” value [18] was 11.9. For the same compound, the “selective drug sensitivity score” value [19] was 20.3 and the “selective drug sensitivity score” value [20] was -6.5.
With CO[C@H]1C[C@@H]2CC[C@@H](C)[C@@](O)(O2)C(=O)C(=O)N2CCCC[C@H]2C(=O)O[C@H]([C@H](C)C[C@@H]2CC[C@@H](OCCO)[C@H](OC)C2)CC(=O)[C@H](C)/C=C(\C)[C@@H](O)[C@@H](OC)C(=O)[C@H](C)C[C@H](C)/C=C/C=C/C=C/1C [Everolimus] (top concentration 100 nM) the “selective drug sensitivity score” value [1] was 16.5, the “selective drug sensitivity score” value [2] was 9.3 and the “selective drug sensitivity score” value [3] was 5.9. For the same compound, the “selective drug sensitivity score” value [4] was 4.8, the “selective drug sensitivity score” value [5] was 10.7 and the “selective drug sensitivity score” value [6] was 4.5. For the same compound, the “selective drug sensitivity score” value [7] was 1.1, the “selective drug sensitivity score” value [8] was 2.7 and the “selective drug sensitivity score” value [9] was -5.3. For the same compound, the “selective drug sensitivity score” value [10] was 0.2, the “selective drug sensitivity score” value [11] was -5.3 and the “selective drug sensitivity score” value [12] was 11.8. The “selective drug sensitivity score” value [13] was 10.3, the “selective drug sensitivity score” value [14] was 3.3 and the “selective drug sensitivity score” value [15] was 3.4. The “selective drug sensitivity score” value [16] was -2.5, the “selective drug sensitivity score” value [17] was 3.2 and the “selective drug sensitivity score” value [18] was 4. The “selective drug sensitivity score” value [19] was 1.4 and the “selective drug sensitivity score” value [20] was -5.3.
